{"source": "patent US20220047594A1", "about": "“METHOD FOR TREATING INTERSTITIAL LUNG DISEASE” (ALTAVANT SCIENCES GmbH, priority 2018, published 2022)", "key": {"[1]": {"test_system": "bleomycin-induced mouse model", "settings": "inflammatory phase and fibrogenic phase; cited from earlier work"}, "[2]": {"test_system": "bleomycin-induced mouse model", "settings": "cited from earlier work"}, "TPH1": {"target": "T1, TPH1 (Mus musculus, UniProt P17532)", "T1 construct": "host or cells: mice (in vivo)", "T1 sequence (P17532 1-447)": "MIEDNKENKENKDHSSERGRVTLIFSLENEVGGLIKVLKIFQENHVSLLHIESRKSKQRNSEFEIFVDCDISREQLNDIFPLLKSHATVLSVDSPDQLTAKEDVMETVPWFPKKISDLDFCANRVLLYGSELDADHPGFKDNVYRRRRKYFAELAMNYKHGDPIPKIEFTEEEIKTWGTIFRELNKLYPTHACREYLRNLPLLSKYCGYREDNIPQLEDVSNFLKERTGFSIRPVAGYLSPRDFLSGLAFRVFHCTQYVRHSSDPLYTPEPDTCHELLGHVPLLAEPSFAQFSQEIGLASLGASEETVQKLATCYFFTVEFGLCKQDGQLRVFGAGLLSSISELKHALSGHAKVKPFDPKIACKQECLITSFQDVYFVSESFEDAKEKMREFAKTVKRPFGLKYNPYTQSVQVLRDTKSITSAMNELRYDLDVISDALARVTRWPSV", "settings": "amorphous form, U.S. Pat. No. 9,199,994 Example 63i and Table 27; cited from earlier work"}, "[3]": {"assay": "stability and shelf life of the crystalline polymorphs of Compound A", "assay_type": "physicochemical", "settings": "compared to the crystalline Form 1 polymorph; particularly at temperatures of less than 95° C.", "text": "The compound may be used to prevent or treat IPF in either an amorphous or crystalline form. Two different polymorph crystalline forms are identified by x-ray powder diffraction patterns set forth in FIG. 1 (Form 3) and FIG. 2 (Form 1) as well as Tables 1 and 2 (Form 3) and Tables 3 and 4 (Form 1)."}}, "data": [{"smiles": "CCN(CC)C(=O)N[C@H]1C[C@@H]2c3cccc4[nH]cc(c34)C[C@H]2N(C)C1", "note": "[terguride]", "values": [{"measurement": "efficacy in attenuating pulmonary fibrosis", "setting": "[1]", "value": "attenuating in both the inflammatory phase and the fibrogenic phase"}, {"measurement": "lung function, histology and collagen content", "setting": "[2]; bleomycin-induced mouse model, treated mice", "value": "improved lung function and histology and collagen content"}, {"measurement": "tolerability", "setting": "[2]; mouse, in vivo", "value": "well-tolerated"}]}, {"smiles": "CCOC(=O)[C@@H]1CC2(CCN(c3cc(O[C@H](c4ccc(Cl)cc4-c4ccccc4)C(F)(F)F)nc(N)n3)CC2)CN1", "note": "[Compound A, (S)-ethyl 8-(2-amino-6-((R)-1-(5-chloro-[1,1′-biphenyl]-2-yl)-2,2,2-trifluoroethoxy)pyrimidin-4-yl)-2,8-diazaspiro[4.5]decane-3-carboxylate]", "values": [{"measurement": "efficacy in inhibiting TPH1 in mice", "setting": "TPH1", "value": "demonstrated"}]}, {"smiles": "CCOC(=O)[C@@H]1CC2(CCN(c3cc(O[C@H](c4ccc(Cl)cc4-c4ccccc4)C(F)(F)F)nc(N)n3)CC2)CN1", "note": "[crystalline Form 3, (S)-ethyl 8-(2-amino-6-((R)-1-(5-chloro-[1,1′-biphenyl]-2-yl)-2,2,2-trifluoroethoxy)pyrimidin-4-yl)-2,8-diazaspiro[4.5]decane-3-carboxylate]", "values": [{"measurement": "stability and shelf life", "setting": "[3]", "value": "substantially greater stability and shelf life"}]}, {"smiles": "CC1CCN(CC[C@H]2CCCN2S(=O)(=O)c2cccc(O)c2)CC1", "note": "[SB-269970]", "values": [{"measurement": "efficacy in attenuating pulmonary fibrosis", "setting": "[1]", "value": "attenuating in both the inflammatory phase and the fibrogenic phase"}]}]}
